Data reported in US10065928B2, “Quinolinone compound and use thereof” (Sunshine Lake Pharma Co., Ltd., priority 2014, dated 2018).

Columns and labels:
[1] = tested on: erythropoietin (EPO) production in Hep3B cells; test: Activity in inducing erythropoietin (EPO) production in vitro, Hep3B cells, EPO ELISA; type: cell-based; conditions: Homo sapiens, 24 h, EPO in supernatant by ELISA
Method: The activities of compounds of the invention in inducing erythropoietin (EPO) production were assessed by using human live cancer cell strain Hep3B (ATCC: American type culture collection, Manassas, Va.). Hep3B cells seeded in a 96-well plate with a density of 2.5×10^4 cells/well were cultivated overnight in DMEM culture medium (Dulbecco's Modified Eagle's Medium) at 37° C. in the presence of 10% fetal bovine serum (FBS). The next day, the supernatant liquid of culture medium was abandoned by suction, and to the residue was added fresh DMEM (containing 0.5% DMSO, 0.5% FBS) containing compound of the invention with a series of concentrations (0.31160.00 μM) or containing solvent used for comparison. The cells were cultivated at 37° C. for 24 h. The supernatant liquid was collected and the EPO concentration of the supernatant was quantified by using human EPO ELISA kit (Abcam). The activity of each compound in inducing erythropoietin (EPO) production was represented by half maximal effective concentration (EC50).

[2] = Pharmacokinetic assay in male SD rats (iv and oral); type: in vivo; conditions: for F: po 5 mg/kg vs iv 1 mg/kg; for AUC(0-t) / Cmax / Tmax / clearance / half-life / Vd: rat, plasma; for Vd: read-out: Vss
Method: Preparation of test compound solutions: the test compound solution was prepared for oral and intravenous administration by using 5% DMSO, 5% Solutol HS 15 and 90% normal saline.
Male SD rats weighing 190-250 g were randomly divided into two groups, and each group had three rats; one group was administered with test compound at a dose of 1.0 mg/kg by intravenous injection, the other group was administered with test compound at a dose of 5.0 mg/kg by oral. After administering, blood samples were collected at time points of 0.0833, 0.25, 0.5, 1.0, 2.0, 4.0, 7.0 and 24 h. Standard curve was plotted based on concentrations of the samples in a suitable range, and the concentrations of test compounds in plasma samples were determined by using AB SCIEX API4000 LC-MS/MS in MRM mode. Pharmacokinetic parameters were calculated according to drug concentration−time curve using a noncompartmental method with WinNonLin 6.3 software.

Row | SMILES | EC50 [1] [µM] | F [2] [%] | AUC(0-t) ([2]; iv, 1 mg/kg) [ng·h/mL] | Cmax ([2]; iv, 1 mg/kg) [ng/mL] | Tmax ([2]; iv, 1 mg/kg) [min] | clearance ([2]; iv, 1 mg/kg) [mL/min/kg] | half-life ([2]; iv, 1 mg/kg) [min] | Vd ([2]; iv, 1 mg/kg) [L/kg] | AUC(0-t) ([2]; po, 5 mg/kg) [ng·h/mL] | Cmax ([2]; po, 5 mg/kg) [ng/mL] | Tmax ([2]; po, 5 mg/kg) [min] | half-life ([2]; po, 5 mg/kg) [min]
1 | Cn1c(=O)c(C(=O)NCC(=O)O)c(O)c2ccc(Oc3cc(Cl)ccc3F)cc21 [Example 22, 2-(7-(5-chloro-2-fluorophenoxy)-4-hydroxy-1-methyl-2-oxo-1,2-dihydroquinoline-3-carboxamido)acetic acid] | 4.18 | 108.6 | 10800 | 10100 | 4.98 | 1.56 | 57.5 | 0.146 | 58700 | 10700 | 50 | 167
2 | Cn1c(=O)c(C(=O)NCC(=O)O)c(O)c2ccc(Oc3ccc(F)cc3)cc21 [Example 47, 2-(7-(4-fluorophenoxy)-4-hydroxy-1-methyl-2-oxo-1,2-dihydroquinoline-3-carboxamido)acetic acid] | 3.92 | 90.7 | 10200 | 6400 | 4.98 | 1.66 | 63.6 | 0.144 | 46200 | 11500 | 30 | 158
3 | O=C(O)CNC(=O)c1c(O)c2ccc(Oc3ccccc3)cc2n(CC2CC2)c1=O [Example 2, 2-(1-(cyclopropylmethyl)-4-hydroxy-2-oxo-7-phenoxy-1,2-dihydroquinoline-3-carboxamido)acetic acid] | 5 | 100.4 | 20200 | 7190 | 13.3 | 0.833 | 224 | 0.159 | 101000 | 13200 | 130 | 239
4 | Cn1c(=O)c(C(=O)NCC(=O)O)c(O)c2ccc(Oc3ccc(F)cc3Cl)cc21 [Example 28, 2-(7-(2-chloro-4-fluorophenoxy)-4-hydroxy-1-methyl-2-oxo-1,2-dihydroquinoline-3-carboxamido)acetic acid] | 1.51 | 107.8 | 6200 | 4170 | 4.98 | 2.67 | 59.4 | 0.217 | 33300 | 11700 | 55 | 106
5 | Cn1c(=O)c(C(=O)NCC(=O)O)c(O)c2ccc(Oc3ccc(Cl)cc3)cc21 [Example 13, 2-(7-(4-chlorophenoxy)-4-hydroxy-1-methyl-2-oxo-1,2-dihydroquinoline-3-carboxamido)acetic acid] | 7.1 | 94.6 | 13100 | 8480 | 4.98 | 1.32 | 57.5 | 0.107 | 57000 | 12300 | 70.2 | 254
6 | COc1cccc(Oc2ccc3c(O)c(C(=O)NCC(=O)O)c(=O)n(C)c3c2)c1 [Example 37, 2-(4-hydroxy-7-(3-methoxyphenoxy)-1-methyl-2-oxo-1,2-dihydroquinoline-3-carboxamido)acetic acid] | 6.26 |  |  |  |  |  |  |  |  |  |  | 
7 | Cn1c(=O)c(C(=O)NCC(=O)O)c(O)c2ccc(Oc3ccccc3)cc21 [Example 1, 2-(4-hydroxy-1-methyl-2-oxo-7-phenoxy-1,2-dihydroquinoline-3-carboxamido)acetic acid] | 5.35 | 81.5 | 9340 | 8910 | 4.98 | 1.77 | 467 | 0.234 | 38400 | 18400 | 40 | 252
8 | Cn1c(=O)c(C(=O)NCC(=O)O)c(O)c2ccc(Oc3cc(F)ccc3F)cc21 [Example 19, 2-(7-(2,5-difluorophenoxy)-4-hydroxy-1-methyl-2-oxo-1,2-dihydroquinoline-3-carboxamido)acetic acid] | 2.26 | 98.7 | 8260 | 6080 | 4.98 | 2.06 | 65.4 | 0.164 | 41000 | 9560 | 30 | 84
